Patent US4243408A, “Herbicidal N-triazolylmethyl-substituted alpha-haloacetanilide” (Chevron Research Company, priority 1978, dated 1981)

Experiments:
Assay type in all cases: in vivo
[1] = tested on: Crabgrass (Digitaria sanguinalis); experiment: Pre-Emergent Test, herbicidal effectiveness; conditions: pre-emergence, 504 h, 33 micrograms per cm^2, 3 weeks, 0-to-100 scale, read-out: Herbicidal Effectiveness, % Control Pre, C
Method: (§1) An acetone solution of the test compound was prepared by mixing 750 mg of the compound, 220 mg of a nonionic surfactant and 25 ml of acetone. This solution was added to approximately 125 ml of water containing 156 mg of surfactant.
(§2) Seeds of the test vegetation were planted in a pot of soil and the test solution was sprayed uniformly onto the soil surface at a dose of 33 micrograms/cm^2. The pot was watered and placed in a greenhouse. […] At the end of this period, the herbicidal effectiveness of the compound was rated based on the physiological observations. A 0-to-100 scale was used, 0 representing no phytotoxicity, 100 representing complete kill.

[2] = tested on: Lambsquarter (Chenopodium album); experiment: Pre-Emergent Test, herbicidal effectiveness; conditions: pre-emergence, 504 h, 33 micrograms per cm^2, 3 weeks, 0-to-100 scale, read-out: Herbicidal Effectiveness, % Control Pre, L
Method: as §1, §2

[3] = tested on: Mustard (Brassica arvensis); experiment: Pre-Emergent Test, herbicidal effectiveness; conditions: pre-emergence, 504 h, 33 micrograms per cm^2, 3 weeks, 0-to-100 scale
Method: as §1, §2

[4] = tested on: Pigweed (Amaranthus retroflexus); experiment: Pre-Emergent Test, herbicidal effectiveness; conditions: pre-emergence, 504 h, 33 micrograms per cm^2, 3 weeks, 0-to-100 scale, read-out: Herbicidal Effectiveness, % Control Pre, P
Method: as §1, §2

Watergrass (Echinochloa) [5] = experiment: Pre-Emergent Test, herbicidal effectiveness; conditions: pre-emergence, 504 h, 33 micrograms per cm^2, 3 weeks, 0-to-100 scale, read-out: Herbicidal Effectiveness, % Control Pre, W
Method: as §1, §2

Wild Oats (Avena fatua) [6] = experiment: Pre-Emergent Test, herbicidal effectiveness; conditions: pre-emergence, 504 h, 33 micrograms per cm^2, 3 weeks, 0-to-100 scale, read-out: Herbicidal Effectiveness, % Control Pre, O
Method: as §1, §2

[7] = tested on: Crabgrass (Digitaria sanguinalis); experiment: Post-Emergent Test, herbicidal effectiveness; conditions: post-emergence, 504 h, 33 micrograms per cm^2, 3 weeks, 0-to-100 scale, read-out: Herbicidal Effectiveness, % Control Post, C
[8] = tested on: Lambsquarter (Chenopodium album); experiment: Post-Emergent Test, herbicidal effectiveness; conditions: post-emergence, 504 h, 33 micrograms per cm^2, 3 weeks, 0-to-100 scale, read-out: Herbicidal Effectiveness, % Control Post, L
[9] = tested on: Mustard (Brassica arvensis); experiment: Post-Emergent Test, herbicidal effectiveness; conditions: post-emergence, 504 h, 33 micrograms per cm^2, 3 weeks, 0-to-100 scale
[10] = tested on: Pigweed (Amaranthus retroflexus); experiment: Post-Emergent Test, herbicidal effectiveness; conditions: post-emergence, 504 h, 33 micrograms per cm^2, 3 weeks, 0-to-100 scale, read-out: Herbicidal Effectiveness, % Control Post, P
Watergrass (Echinochloa) [11] = experiment: Post-Emergent Test, herbicidal effectiveness; conditions: post-emergence, 504 h, 33 micrograms per cm^2, 3 weeks, 0-to-100 scale, read-out: Herbicidal Effectiveness, % Control Post, W
Wild Oats (Avena fatua) [12] = experiment: Post-Emergent Test, herbicidal effectiveness; conditions: post-emergence, 504 h, 33 micrograms per cm^2, 3 weeks, 0-to-100 scale, read-out: Herbicidal Effectiveness, % Control Post, O

| SMILES | pest or weed control at 33 µg/cm2 [1] [%] | pest or weed control at 33 µg/cm2 [2] [%] | pest or weed control at 33 µg/cm2 [3] [%] | pest or weed control at 33 µg/cm2 [4] [%] | pest or weed control at 33 µg/cm2 (Watergrass (Echinochloa) [5]) [%] | pest or weed control at 33 µg/cm2 (Wild Oats (Avena fatua) [6]) [%] | pest or weed control at 5000 µg/mL, 33 µg/cm2 [7] [%] | pest or weed control at 5000 µg/mL, 33 µg/cm2 [8] [%] | pest or weed control at 5000 µg/mL, 33 µg/cm2 [9] [%] | pest or weed control at 5000 µg/mL, 33 µg/cm2 [10] [%] | pest or weed control at 5000 µg/mL, 33 µg/cm2 (Watergrass (Echinochloa) [11]) [%] | pest or weed control at 5000 µg/mL, 33 µg/cm2 (Wild Oats (Avena fatua) [12]) [%] |
| --- | --- | --- | --- | --- | --- | --- | --- | --- | --- | --- | --- | --- |
| CCc1cccc(C)c1N(Cc1nnc[nH]1)C(=O)CCl [Compound 17B] | 100 | 100 | 90 | 95 | 100 | 100 | 75 | 65 | 75 | 65 | 75 | 60 |
| Cc1cccc(C)c1NCc1nnc(S)[nH]1 [Compound 18A] | 0 | 0 | 0 | 0 | 0 | 0 | 0 | 0 | 0 | 0 | 0 | 0 |
| Cc1cccc(C)c1N(Cc1nnc(S)[nH]1)C(=O)CCl [Compound 18B] | 0 | 0 | 0 | 0 | 0 | 0 | 0 | 0 | 0 | 0 | 0 | 0 |
| CCc1cccc(C)c1NCc1nnc(S)n1C [Compound 19] | 0 | 0 | 0 | 0 | 0 | 0 | 0 | 0 | 0 | 0 | 0 | 0 |
| CCc1cccc(CC)c1NCc1nnc[nH]1 [Compound 20A] | 0 | 0 | 0 | 0 | 0 | 0 | 0 | 0 | 0 | 0 | 0 | 0 |
| CCc1cccc(CC)c1N(Cc1nnc[nH]1)C(=O)CCl [Compound 20B] | 95 | 97 | 95 | 100 | 100 | 97 | 30 | 25 | 30 | 35 | 55 | 0 |
